Measured values published in EP2067861A1, “Animals of the rattus genus wherein msh6 expression is functionally decreased and methods for the generation of specific mutants therefrom” (Koninklijke Nederlandse Akademie van Wetenschappen, priority 2007, dated 2009).

System: Male MSH6 knockout rats (Msh6^1Hubr)
Experiment: ENU-induced germ line mutation discovery by resequencing 768 amplicons in F1 progeny
Type: in vivo, rat
Description: All experiments were approved by the Animal Care Committee of the Royal Dutch Academy of Science according to the Dutch legal ethical guidelines. Experiments were designed to minimize the number of required animals and their suffering. Male MSH6 knockout rats (Msh6^1Hubr) of 12 weeks of age were given three weekly intraperitoneal injections of 25, 30 and 35 mg/kg bodyweight ENU. Preparation of ENU (Isopac; Sigma) was done as decribed (for detailed description, see (Smits et al. (2006) Pharmacogenet Genomics 16, 159-69) After the treatment the injected males were monitored for fertility by breeding with one or two females. Pups from these early matings were counted, but not analyzed. Ten weeks after the last injection, fertile males of the highest-dosed fertile group were kept on a weekly breeding scheme with two females to produce F1 progeny for mutational analysis. Animals were housed under standard conditions in groups of two to three per cage per gender under controlled experimental conditions (12-h light/dark cycle, 21±1°C, 60% relative humidity, food and water ad libitum).
At two weeks of age F1 progeny were uniquely tagged by fetching ear clips. Ear clips were lysed for at least 2 hours at 55°C and 1400 rpm in a Thermomixer comfort (Eppendorf) in 400 µl lysisbuffer (100 mM Tris (pH 8.5), 200 mM NaCl, 0.2% SDS, 5 mM EDTA and 100 µg/ml of freshly added Proteinase K) followed by phenol/chloroform (1:1, vol/vol) extraction. The DNA was precipitated by adding 300 µl isopropanol, mixing and centrifuging for 20 min, at 21,000 g at 4°C. The supernatant was discarded and pellets were washed with 70% ethanol and dissolved in 500 µl MQ.
768 pre-selected amplicons were amplified using a nested PCR setup. The first PCR was carried out using a touchdown thermocycling program (94°C for 60 sec; 15 cycles of 92°C for 30 sec, 65°C for 30 sec with a decrement of 0.6°C per cycle, 72°C for 60 sec; followed by 30 cycles of 92°C for 30 sec, 58°C for 30 sec and 72°C for 60 sec; 72°C for 180 sec; GeneAmp9700, Applied Biosystems). The PCR reaction contained ±100 ng DNA, 0.2 µM of each forward primer and 0.2 µM of each reverse primer, 400 µM of each dNTP, 25 mM tricine, 7.0% glycerol (w/v), 1.6% dimethyl sulfoxide (DMSO) (w/v), 2 mM MgCl2, 85 mM ammonium acetate pH 8.7 and 0.2 U Taq Polymerase in a total volume of 5 µl. After thermocycling, the PCR1 reactions were diluted with 20 µl H2O and 1 µl was used as template for the second round of PCR. The second PCR was done using a standard thermocycling program (94°C for 60 sec; 35 cycles of 92°C for 20 sec, 58°C for 30 sec and 72°C for 60 sec; 72°C for 180 sec; GeneAmp9700, Applied Biosystems). PCR2 mixes contained 1 µl diluted PCR1 template, 0.1 µM forward primer, 0.1 µM reverse primer, 100 µM of each dNTP, 25 mM tricine, 7.0% glycerol (w/v), 1.6% DMSO (w/v), 2 mM MgCl2, 85 mM ammonium acetate pH 8.7 and 0.1 U Taq Polymerase in a total volume of 5 µl. Several samples of each plate were tested on a 1% agarose gel containing ethidium bromide for the presence of the proper PCR fragment. PCR2 products were diluted with 20 µl H2O and 1 µl was directly used as a template for the sequencing reactions. Sequencing reactions contained 0.1 µl BigDye (v3.1; Applied Biosystems), 1.9 µl BigDye Dilution Buffer (Applied Biosystems) and 0.4 µM of the forward primers used for the PCR2 reaction in a total volume of 5 µl. The thermocycling program that was recommended by the manufacturer was used for the sequence reactions (40 cycles of 94°C for 10 sec, 50°C for 5 sec and 60°C for 120 sec). Sequencing products were purified by ethanol precipitation in the presence of 40 mM sodium-acetate and analyzed on a 96-capillary 3730XL DNA analyzer (Applied Biosystems), using the standard RapidSeq protocol on 36 cm array. Sequences were analyzed for the presence of heterozygous mutations using PolyPhred (Nickerson et al. (1997) Nucleic Acids Res. 25, 2745-51) and in-house developed software. […]

[1] = 3 x 30 mg/kg bodyweight ENU, animals born 14 - 16 weeks after the ENU injection
[2] = 94 coding mutations, all MSH6^-/- dose groups
[3] = ENU mutation spectrum, MSH6 deficient compared to proficient background
[4] = MSH6^-/- 3 x 25 mg/kg ENU, 16 pups, 3.57 x 10^6 bases screened
[5] = MSH6^-/- 3 x 30 mg/kg ENU, 291 pups, 69.66 x 10^6 bases screened
[6] = MSH6^-/- 3 x 35 mg/kg ENU, 3 pups, 0.72 x 106 bases screened
[7] = MSH6^-/- Total of the three dose groups

For CCN(N=O)C(N)=O [ENU, N-ethyl-N-nitrosourea], the “Mutation Frequencies” value (3 x 30 mg/kg bodyweight ENU, F1 born 14 - 16 weeks after last injection) was 1.88 x 10^-6, the “# Mutations” value (3 x 30 mg/kg bodyweight ENU, F1 born 14 - 16 weeks after last injection, 59 pups, 14.92 x 10^6 bases screened) was 28 and the “Mutation Frequencies” value (3 x 30 mg/kg bodyweight ENU, F1 born 17 - 19 weeks after last injection) was 1.65 x 10^-6. The “# Mutations” value (3 x 30 mg/kg bodyweight ENU, F1 born 17 - 19 weeks after last injection, 62 pups, 13.30 x 106 bases screened) was 22, the “Mutation Frequencies” value (3 x 30 mg/kg bodyweight ENU, F1 born 20 - 22 weeks after last injection) was 1.24 x 10^-6 and the “# Mutations” value (3 x 30 mg/kg bodyweight ENU, F1 born 20 - 22 weeks after last injection, 67 pups, 15.34 x 10^6 bases screened) was 19. The “Mutation Frequencies” value (3 x 30 mg/kg bodyweight ENU, F1 born 23 - 25 weeks after last injection) was 9.92 x 10^-7, the “# Mutations” value (3 x 30 mg/kg bodyweight ENU, F1 born 23 - 25 weeks after last injection, 64 pups, 16.14 x 10^6 bases screened) was 16 and the mutation frequency (3 x 30 mg/kg bodyweight ENU, F1 born 23 weeks after the last injection or later) was “approximately 1.0 x 10^-6 per base pair”. The “Mutation Frequencies” value (3 x 30 mg/kg bodyweight ENU, F1 born 26 - 29 weeks after last injection) was 1.10 x 10^-6, the “# Mutations” value (3 x 30 mg/kg bodyweight ENU, F1 born 26 - 29 weeks after last injection, 39 pups, 9.97 x 10^6 bases screened) was 11 and the mutation frequency [1] was 1.88 x 10^-6 per base pair. The “mutation rate (1 mutation every ... base pairs)” value [1] was 5.3 x 10^5 base pairs, the mutation frequency (3 x 30 mg/kg bodyweight ENU, animals born 17 - 19 weeks after the last ENU injection) was 1.65 x 10^-6 per base pair and the mutation frequency (3 x 30 mg/kg bodyweight ENU, animals born 20 - 22 weeks after the last ENU injection) was 1.24 x 10^-6 per base pair. For the same compound, the “missense mutations, share of coding mutations” value [2] was about 74%, the “nonsense mutations, share of coding mutations” value [2] was about 4% and the “silent mutations, share of coding mutations” value [2] was about 21%. For the same compound, the “percentage of A:T to G:C transitions” value [3] was “significantly decreased”, the “percentage of G:C to A:T transitions” value [3] was “significantly increased” and the percentages of transversions [3] was “No significant change”. For the same compound, the “# Mutations - non-coding” value (MSH6^-/- 3 x 25 mg/kg ENU) was 0, the “# Mutations - silent” value (MSH6^-/- 3 x 25 mg/kg ENU) was 1 and the “# Mutations - missense” value [4] was 4. For the same compound, the “# Mutations - nonsense” value [4] was 0, the “# Mutations - total” value [4] was 5 and the “Mutation Frequencies” value (MSH6^-/- 3 x 25 mg/kg ENU, F1 progeny) was 1.40 x 10^-6. For the same compound, the “# Mutations - non-coding” value (MSH6^-/- 3 x 30 mg/kg ENU) was 8, the “# Mutations - silent” value (MSH6^-/- 3 x 30 mg/kg ENU) was 19 and the “# Mutations - missense” value [5] was 65. The “# Mutations - nonsense” value [5] was 4, the “# Mutations - total” value [5] was 96 and the “Mutation Frequencies” value (MSH6^-/- 3 x 30 mg/kg ENU, F1 progeny) was 1.38 x 10^-6. The “# Mutations - non-coding” value (MSH6^-/- 3 x 35 mg/kg ENU) was 0, the “# Mutations - silent” value (MSH6^-/- 3 x 35 mg/kg ENU) was 0 and the “# Mutations - missense” value [6] was 1. The “# Mutations - nonsense” value [6] was 0, the “Mutation Frequencies” value (MSH6^-/- 3 x 35 mg/kg ENU, F1 progeny) was 1.38 x 10^-6 and the “# Mutations - missense” value [7] was 70. The “# Mutations - non-coding” value [7] was 8, the “# Mutations - silent” value [7] was 20 and the “# Mutations - total” value (MSH6^-/- Total of the three dose groups, 310 pups, 73,95 x 10^6 bases screened) was 102. For the same compound, the “increase of mutation rate compared to control animals” value (MSH6 deficient 3 x 30 mg/kg ENU versus control 3 x 40 mg/kg) was 1.7 x, the “mutation rate (1 mutation every ... base pairs)” value (MSH6 deficient, 3 x 30 mg/kg bodyweight ENU, 291 F1 progeny, almost 70 Mb) was 7.26 x 10^5 base pairs and the “mutations in coding regions” value (of the 102 mutations found, all MSH6^-/- dose groups) was 94.
